According to US10183938B2, “Geminal substituted quinuclidine amide compounds as agonists of α-7 nicotonic acetylcholine receptors” (AXOVANT SCIENCES GMBH, priority 2014, dated 2019):
Structures can show the parent of a compound that is named as a salt.

target: human 5-HT3 serotonin receptors (Homo sapiens (Human), UniProt P46098); experiment: [3H]BRL 43694 competition binding; settings: CHO cell membranes, [3H]BRL 43694, Cheng Prusoff; read-out: h-5HT3 Ki
Sequence (P46098 24-478): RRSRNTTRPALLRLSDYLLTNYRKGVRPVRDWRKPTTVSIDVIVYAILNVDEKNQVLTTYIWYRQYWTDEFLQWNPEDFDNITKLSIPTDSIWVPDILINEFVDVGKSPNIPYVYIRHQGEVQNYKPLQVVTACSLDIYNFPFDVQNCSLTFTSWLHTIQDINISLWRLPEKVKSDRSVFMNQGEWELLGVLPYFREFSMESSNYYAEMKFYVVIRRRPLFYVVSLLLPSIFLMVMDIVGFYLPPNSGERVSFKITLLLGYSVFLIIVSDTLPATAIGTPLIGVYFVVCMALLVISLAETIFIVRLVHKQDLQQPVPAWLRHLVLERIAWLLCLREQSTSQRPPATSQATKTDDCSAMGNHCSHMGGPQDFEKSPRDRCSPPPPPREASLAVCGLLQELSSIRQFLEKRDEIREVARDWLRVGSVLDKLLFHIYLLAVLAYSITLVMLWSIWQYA

`CC1(C)[C@H](NC(=O)c2cc3ccc(Cl)c(C(F)(F)F)c3s2)C2CCN1CC2` [(R)-111, (R)-6-chloro-N-(2,2-dimethylquinuclidin-3-yl)-7-(trifluoromethyl)benzo[b]thiophene-2-carboxamide hydrochloride] and `Cc1ccc2cc(C(=O)N[C@@H]3C4CCN(CC4)C3(C)C)sc2c1C(F)(F)F` [(R)-113, (R)—N-(2,2-dimethylquinuclidin-3-yl)-6-methyl-7-(trifluoromethyl)benzo[b]thiophene-2-carboxamide hydrochloride] cannot be ordered by Ki: over 10000 nM for the first, over 10000 nM for the second.

`CC1(C)[C@H](NC(=O)c2cc3cccc(C4CC4)c3s2)C2CCN1CC2` [(R)-118, (R)-7-cyclopropyl-N-(2,2-dimethylquinuclidin-3-yl)benzo[b]thiophene-2-carboxamide hydrochloride] and `O=C(N[C@@H]1C2CCN(CC2)C12CC2)c1cc2cccc(C3CC3)c2s1` [(R)-165, (R)-7-cyclopropyl-N-(1′-azaspiro[cyclopropane-1,2′-bicyclo[2.2.2]octan]-3′-yl)benzo[b]thiophene-2-carboxamide hydrochloride] are within 1.5-fold of each other in Ki: 230 nM for the first, 200 nM for the second.

Compared with `CC1(C)[C@H](NC(=O)c2cc3cc(F)c(Cl)cc3s2)C2CCN1CC2` [(R)-123, (R)-6-chloro-N-(2,2-dimethylquinuclidin-3-yl)-5-fluorobenzo[b]thiophene-2-carboxamide hydrochloride], `O=C(N[C@@H]1C2CCN(CC2)C12CC2)c1cc2cc(F)c(Cl)cc2s1` [(R)-172, (R)-6-chloro-5-fluoro-N-(1′-azaspiro[cyclopropane-1,2′-bicyclo[2.2.2]octan]-3′-yl)benzo[b]thiophene-2-carboxamide hydrochloride] is lower in Ki: over 10000 nM for the first, 4900 nM for the second.

`CC1(C)[C@H](NC(=O)c2cc3cc(F)c(Cl)c(F)c3s2)C2CCN1CC2` [(R)-125, (R)-6-chloro-N-(2,2-dimethylquinuclidin-3-yl)-5,7-difluorobenzo[b]thiophene-2-carboxamide hydrochloride] and `O=C(N[C@@H]1C2CCN(CC2)C12CC2)c1cc2cc(F)c(Cl)c(F)c2s1` [(R)-175, (R)-6-chloro-5,7-difluoro-N-(1′-azaspiro[cyclopropane-1,2′-bicyclo[2.2.2]octan]-3′-yl)benzo[b]thiophene-2-carboxamide hydrochloride] cannot be ordered by Ki: over 10000 nM for the first, over 10000 nM for the second.

Going from `Cc1cccc2cc(C(=O)N[C@@H]3C4CCN(CC4)C3(C)C)sc12` [(R)-126, (R)—N-(2,2-dimethylquinuclidin-3-yl)-7-methylbenzo[b]thiophene-2-carboxamide hydrochloride] to `COCc1cccc2cc(C(=O)N[C@@H]3C4CCN(CC4)C3(C)C)sc12` [(R)-143, (R)—N-(2,2-dimethylquinuclidin-3-yl)-7-(methoxymethyl)benzo[b]thiophene-2-carboxamide hydrochloride], the Ki rises from 170 nM to 740 nM (4.4-fold).

Compared with `CC1(C)[C@H](NC(=O)c2cc3cccc(CC(F)(F)F)c3s2)C2CCN1CC2` [(R)-127, (R)—N-(2,2-dimethylquinuclidin-3-yl)-7-(2,2,2-trifluoroethyl)benzo[b]thiophene-2-carboxamide hydrochloride], `O=C(N[C@@H]1C2CCN(CC2)C12CC2)c1cc2cccc(CC(F)(F)F)c2s1` [(R)-177, (R)—N-(1′-azaspiro[cyclopropane-1,2′-bicyclo[2.2.2]octan]-3′-yl)-7-(2,2,2-trifluoroethyl)benzo[b]thiophene-2-carboxamide hydrochloride] is 1.6-fold lower in Ki: 1100 nM for the first, 690 nM for the second. The second binds more tightly here.

First: CC1(C)[C@H](NC(=O)c2cc3cccc(-c4nccs4)c3s2)C2CCN1CC2 [(R)-129, (R)—N-(2,2-dimethylquinuclidin-3-yl)-7-(thiazol-2-yl)benzo[b]thiophene-2-carboxamide hydrochloride]
Second: CC1(C)[C@H](NC(=O)c2cc3cccc(-c4ccccc4)c3s2)C2CCN1CC2 [(R)-132, (R)—N-(2,2-dimethylquinuclidin-3-yl)-7-phenylbenzo[b]thiophene-2-carboxamide hydrochloride]
The Ki of the first is 4.4-fold higher: 440 nM for the first, 100 nM for the second. The second binds more tightly here.

First: CC1(c2cccc3cc(C(=O)N[C@@H]4C5CCN(CC5)C4(C)C)sc23)CC1 [(R)-133, (R)—N-(2,2-dimethylquinuclidin-3-yl)-7-(1-methylcyclopropyl)benzo[b]thiophene-2-carboxamide hydrochloride]
Second: Cc1cccc2cc(C(=O)N[C@@H]3C4CCN(CC4)C34CC4)sc12 [(R)-176, (R)-7-methyl-N-(1′-azaspiro[cyclopropane-1,2′-bicyclo[2.2.2]octan]-3′-yl)benzo[b]thiophene-2-carboxamide hydrochloride]
The Ki of the first is 3.1-fold higher: 400 nM for the first, 130 nM for the second.

Going from `Cc1ccc2cc(C(=O)N[C@@H]3C4CCN(CC4)C3(C)C)sc2c1C1CC1` [(R)-140, (R)-7-cyclopropyl-N-(2,2-dimethylquinuclidin-3-yl)-6-methylbenzo[b]thiophene-2-carboxamide hydrochloride] to `COc1ccc2cc(C(=O)N[C@@H]3C4CCN(CC4)C34CC4)sc2c1Cl` [(R)-154, (R)-7-chloro-6-methoxy-N-(1′-azaspiro[cyclopropane-1,2′-bicyclo[2.2.2]octan]-3′-yl)benzo[b]thiophene-2-carboxamide hydrochloride], the Ki falls from 22000 nM to 6200 nM (3.5-fold). The second binds more tightly here.

First: O=C(N[C@@H]1C2CCN(CC2)C12CC2)c1cc2ccc(Cl)c(C(F)(F)F)c2s1 [(R)-152, (R)-6-chloro-N-(1′-azaspiro[cyclopropane-1,2′-bicyclo[2.2.2]octan]-3′-yl)-7-(trifluoromethyl)benzo[b]thiophene-2-carboxamide hydrochloride]
Second: O=C(N[C@@H]1C2CCN(CC2)C12CC2)c1cc2cccc(OC(F)(F)F)c2s1 [(R)-167, (R)—N-(1′-azaspiro[cyclopropane-1,2′-bicyclo[2.2.2]octan]-3′-yl)-7-(trifluoromethoxy)benzo[b]thiophene-2-carboxamide hydrochloride]
The Ki of the first is higher: over 10000 nM for the first, 895 nM for the second.

`N#Cc1cccc2cc(C(=O)N[C@@H]3C4CCN(CC4)C34CC4)sc12` [(R)-160, (R)-7-cyano-N-(1′-azaspiro[cyclopropane-1,2′-bicyclo[2.2.2]octan]-3′-yl)benzo[b]thiophene-2-carboxamide hydrochloride] and `CC(C)c1cccc2cc(C(=O)N[C@@H]3C4CCN(CC4)C34CC4)sc12` [(R)-166, (R)-7-isopropyl-N-(1′-azaspiro[cyclopropane-1,2′-bicyclo[2.2.2]octan]-3′-yl)benzo[b]thiophene-2-carboxamide hydrochloride] are within 1.5-fold of each other in Ki: 260 nM for the first, 325 nM for the second.

First: O=C(N[C@@H]1C2CCN(CC2)C12CC2)c1cc2ccccc2[nH]1 [(R)-170, (R)—N-(1′-azaspiro[cyclopropane-1,2′-bicyclo[2.2.2]octan]-3′-yl)-1H-indole-2-carboxamide hydrochloride]
Second: CN(C)c1cccc2cc(C(=O)N[C@@H]3C4CCN(CC4)C34CC4)sc12 [(R)-178, (R)-7-(dimethylamino)-N-(1′-azaspiro[cyclopropane-1,2′-bicyclo[2.2.2]octan]-3′-yl)benzo[b]thiophene-2-carboxamide hydrochloride]
The Ki of the first is 2-fold higher: 800 nM for the first, 400 nM for the second. The second binds more tightly here.

Compound `COc1cc2sc(C(=O)N[C@@H]3C4CCN(CC4)C34CC4)cc2cc1F` [(R)-173, (R)-5-fluoro-6-methoxy-N-(1′-azaspiro[cyclopropane-1,2′-bicyclo[2.2.2]octan]-3′-yl)benzo[b]thiophene-2-carboxamide hydrochloride] has a Ki of over 10000 nM.

target: human α7 nAChRs transiently expressed in Xenopus laevis oocytes (Homo sapiens (Human), UniProt P36544); experiment: Oocyte electrophysiology screen (TEVC); format: cell-based; settings: 0.01 mM test compound, peak current relative to 0.2 mM ACh
Sequence (P36544 23-502 limits assumed): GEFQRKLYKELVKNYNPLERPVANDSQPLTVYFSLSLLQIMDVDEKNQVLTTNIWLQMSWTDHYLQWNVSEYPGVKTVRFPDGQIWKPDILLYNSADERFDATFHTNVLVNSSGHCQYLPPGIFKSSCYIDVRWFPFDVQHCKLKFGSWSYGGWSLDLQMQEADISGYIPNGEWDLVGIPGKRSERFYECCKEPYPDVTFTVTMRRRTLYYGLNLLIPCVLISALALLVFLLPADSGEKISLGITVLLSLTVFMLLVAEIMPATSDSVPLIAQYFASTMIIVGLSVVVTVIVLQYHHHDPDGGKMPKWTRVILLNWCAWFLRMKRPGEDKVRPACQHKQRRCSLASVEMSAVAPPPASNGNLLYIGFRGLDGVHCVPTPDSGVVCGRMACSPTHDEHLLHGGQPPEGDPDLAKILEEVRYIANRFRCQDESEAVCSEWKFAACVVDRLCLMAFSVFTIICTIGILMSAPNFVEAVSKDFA
How it was run: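 Oocytes expressing human α7 were clamped at −80 mV by TEVC. After a 0.2 mM ACh control pulse, test compound was applied at 0.01 mM for 30 s. Agonist response is peak current as % of the ACh response, in triplicate.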

`CC1(C)[C@@H](NC(=O)c2cc3c(cn2)OCCO3)C2CCN1CC2` [(S)-23, (S)—N-(2,2-dimethylquinuclidin-3-yl)-2,3-dihydro-[1,4]dioxino[2,3-c]pyridine-7-carboxamide hydrochloride] and `CC1(C)[C@@H](NC(=O)c2cnn3ncccc23)C2CCN1CC2` [(S)-27, (S)—N-(2,2-dimethylquinuclidin-3-yl)pyrazolo[1,5-b]pyridazine-3-carboxamide hydrochloride] are the same in “% ACh @ 10 μM Oocyte” value: 0 % ACh for the first, 0 % ACh for the second.

First: CC1(C)[C@@H](NC(=O)c2cc3cccnc3s2)C2CCN1CC2 [(S)-28, (S)—N-(2,2-dimethylquinuclidin-3-yl)thieno[2,3-b]pyridine-2-carboxamide hydrochloride]
Second: CC1(C)[C@@H](NC(=O)c2nc3ccccc3s2)C2CCN1CC2 [(S)-29, (S)—N-(2,2-dimethylquinuclidin-3-yl)benzo[d]thiazole-2-carboxamide hydrochloride]
The “% ACh @ 10 μM Oocyte” value of the first is lower: 1 % ACh for the first, 2 % ACh for the second.

Compared with `O=C(N[C@H]1C2CCN(CC2)C12CC2)c1cc2ccoc2cn1` [(S)-75, (S)—N-(1′-azaspiro[cyclopropane-1,2′-bicyclo[2.2.2]octan]-3′-yl)furo[2,3-c]pyridine-5-carboxamide hydrochloride], `O=C(N[C@H]1C2CCN(CC2)C12CC2)c1cc2c(cn1)OCCO2` [(S)-76, (S)—N-(1′-azaspiro[cyclopropane-1,2′-bicyclo[2.2.2]octan]-3′-yl)-2,3-dihydro-[1,4]dioxino[2,3-c]pyridine-7-carboxamide hydrochloride] is lower in “% ACh @ 10 μM Oocyte” value: 14 % ACh for the first, 1 % ACh for the second.

First: O=C(N[C@H]1C2CCN(CC2)C12CC2)c1cnn2ncccc12 [(S)-80, (S)—N-(1′-azaspiro[cyclopropane-1,2′-bicyclo[2.2.2]octan]-3′-yl)pyrazolo[1,5-b]pyridazine-3-carboxamide hydrochloride]
Second: O=C(N[C@H]1C2CCN(CC2)C12CC2)c1cc2cccnc2s1 [(S)-81, (S)—N-(1′-azaspiro[cyclopropane-1,2′-bicyclo[2.2.2]octan]-3′-yl)thieno[2,3-b]pyridine-2-carboxamide hydrochloride]
The “% ACh @ 10 μM Oocyte” value of the first is higher: 2 % ACh for the first, 1 % ACh for the second.

Going from `O=C(N[C@H]1C2CCN(CC2)C12CC2)c1nc2ccccc2s1` [(S)-82, (S)—N-(1′-azaspiro[cyclopropane-1,2′-bicyclo[2.2.2]octan]-3′-yl)benzo[d]thiazole-2-carboxamide hydrochloride] to “(R)-N-(2,2-dimethylquinuclidin-3-yl)-6-(trifluoromethoxy)benzo[b]thiophene-2-carboxamide hydrochloride [(R)-209]”, the “% ACh @ 10 μM Oocyte” value falls from 2 % ACh to 1 % ACh.
